Measured values reported in ChEMBL document CHEMBL3351363 (J Med Chem, 2014).

Assays:
[1] = biological target: T1, Muscarinic acetylcholine receptor M4 (Homo sapiens) (UniProt P08173); experiment: Antagonist activity at human M4 receptor expressed in HEK293T cells assessed as inhibition of carbachol-induced response by BRET based Gq protein engagement assay relative to untreated control; format: cell-based; conditions: HEK-293T
T1 sequence (whole entry): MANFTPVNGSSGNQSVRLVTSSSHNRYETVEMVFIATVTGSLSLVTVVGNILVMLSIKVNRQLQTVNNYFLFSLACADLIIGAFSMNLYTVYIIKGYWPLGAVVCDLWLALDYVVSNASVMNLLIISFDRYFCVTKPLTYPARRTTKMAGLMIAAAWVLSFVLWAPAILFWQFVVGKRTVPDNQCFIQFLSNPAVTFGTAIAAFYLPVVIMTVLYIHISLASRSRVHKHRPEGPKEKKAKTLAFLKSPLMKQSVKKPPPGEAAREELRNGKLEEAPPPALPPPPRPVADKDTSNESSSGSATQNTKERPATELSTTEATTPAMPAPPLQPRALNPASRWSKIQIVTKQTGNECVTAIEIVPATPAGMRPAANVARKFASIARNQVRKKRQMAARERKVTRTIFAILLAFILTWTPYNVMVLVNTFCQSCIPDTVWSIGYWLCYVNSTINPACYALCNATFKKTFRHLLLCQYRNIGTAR

[2] = biological target: T1, Muscarinic acetylcholine receptor M4 (Homo sapiens); experiment: Antagonist activity at human M4 receptor expressed in HEK293T cells assessed as inhibition of carbachol-induced response by beta-arrestin engagement assay relative to untreated control; format: cell-based; conditions: HEK-293T
[3] = biological target: T1, Muscarinic acetylcholine receptor M4 (Homo sapiens); experiment: Antagonist activity at human M4 receptor expressed in HEK293T cells assessed as inhibition of carbachol-induced response by BRET based Gi protein activation assay relative to untreated control; conditions: HEK-293T
[4] = biological target: T2, Muscarinic acetylcholine receptor M1 (Homo sapiens, UniProt P11229); experiment: Displacement of [3H]NMS from human M1 receptor expressed in CHO cells by microplate scintillation counting based radioligand binding assay; format: cell-based
T2 sequence (P11229 whole entry): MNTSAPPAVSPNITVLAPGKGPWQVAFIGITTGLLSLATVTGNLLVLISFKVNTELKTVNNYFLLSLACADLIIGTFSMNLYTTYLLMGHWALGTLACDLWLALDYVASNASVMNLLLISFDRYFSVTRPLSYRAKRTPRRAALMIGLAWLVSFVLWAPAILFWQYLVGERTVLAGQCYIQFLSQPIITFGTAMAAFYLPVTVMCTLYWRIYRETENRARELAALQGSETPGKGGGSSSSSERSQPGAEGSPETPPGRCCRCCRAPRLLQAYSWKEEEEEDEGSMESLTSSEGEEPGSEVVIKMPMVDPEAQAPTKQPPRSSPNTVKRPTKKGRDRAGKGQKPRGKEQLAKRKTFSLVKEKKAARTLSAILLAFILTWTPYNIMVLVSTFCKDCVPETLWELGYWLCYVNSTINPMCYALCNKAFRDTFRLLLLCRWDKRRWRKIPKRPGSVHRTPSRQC

[5] = biological target: T3, Muscarinic acetylcholine receptor M4 (Homo sapiens, UniProt P08173); experiment: Displacement of [3H]NMS from human M4 receptor expressed in CHO cells by microplate scintillation counting based radioligand binding assay; format: cell-based
T3 sequence (P08173 whole entry): T1 sequence (whole entry)

[6] = biological target: Muscarinic acetylcholine receptor M3 (Homo sapiens, UniProt P20309); experiment: Displacement of [3H]NMS from human M3 receptor expressed in CHO cells by microplate scintillation counting based radioligand binding assay; format: cell-based
Muscarinic acetylcholine receptor M3, sequence (P20309 whole entry): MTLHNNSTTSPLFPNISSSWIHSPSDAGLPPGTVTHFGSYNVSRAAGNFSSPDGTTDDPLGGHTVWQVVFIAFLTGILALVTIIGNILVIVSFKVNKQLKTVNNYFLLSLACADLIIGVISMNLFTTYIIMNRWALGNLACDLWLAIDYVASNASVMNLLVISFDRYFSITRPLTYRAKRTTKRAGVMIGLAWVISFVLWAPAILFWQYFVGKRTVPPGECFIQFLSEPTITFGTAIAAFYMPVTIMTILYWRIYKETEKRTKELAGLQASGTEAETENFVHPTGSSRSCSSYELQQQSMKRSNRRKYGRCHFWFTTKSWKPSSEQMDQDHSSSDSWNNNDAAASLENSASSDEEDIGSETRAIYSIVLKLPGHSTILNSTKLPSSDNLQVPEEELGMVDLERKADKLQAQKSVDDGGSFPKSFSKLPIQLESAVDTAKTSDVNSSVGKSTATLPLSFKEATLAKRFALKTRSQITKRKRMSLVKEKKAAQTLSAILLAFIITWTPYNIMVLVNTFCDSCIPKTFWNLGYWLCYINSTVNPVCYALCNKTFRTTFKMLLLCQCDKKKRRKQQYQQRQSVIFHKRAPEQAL

[7] = biological target: T4, Muscarinic acetylcholine receptor M5 (Homo sapiens, UniProt P08912); experiment: Displacement of [3H]NMS from human M5 receptor expressed in CHO cells by microplate scintillation counting based radioligand binding assay; format: cell-based
T4 sequence (P08912 whole entry): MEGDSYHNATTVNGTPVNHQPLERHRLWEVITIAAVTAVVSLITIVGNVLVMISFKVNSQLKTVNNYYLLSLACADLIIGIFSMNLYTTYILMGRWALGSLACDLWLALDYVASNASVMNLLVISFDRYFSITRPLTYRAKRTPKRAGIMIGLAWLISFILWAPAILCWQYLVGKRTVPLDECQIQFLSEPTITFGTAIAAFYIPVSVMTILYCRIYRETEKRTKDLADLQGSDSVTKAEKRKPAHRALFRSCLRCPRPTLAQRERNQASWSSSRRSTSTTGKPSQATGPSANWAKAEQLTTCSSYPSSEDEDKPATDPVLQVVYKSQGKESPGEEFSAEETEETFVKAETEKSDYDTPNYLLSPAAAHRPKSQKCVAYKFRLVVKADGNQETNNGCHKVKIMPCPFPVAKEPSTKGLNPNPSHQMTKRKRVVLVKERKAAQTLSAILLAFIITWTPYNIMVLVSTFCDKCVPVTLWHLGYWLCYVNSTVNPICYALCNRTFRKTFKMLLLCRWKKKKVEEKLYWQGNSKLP

[8] = biological target: T5, Muscarinic acetylcholine receptor M2 (Homo sapiens, UniProt P08172); experiment: Displacement of [3H]NMS from human M2 receptor expressed in CHO cells by microplate scintillation counting based radioligand binding assay; format: cell-based
T5 sequence (P08172 whole entry): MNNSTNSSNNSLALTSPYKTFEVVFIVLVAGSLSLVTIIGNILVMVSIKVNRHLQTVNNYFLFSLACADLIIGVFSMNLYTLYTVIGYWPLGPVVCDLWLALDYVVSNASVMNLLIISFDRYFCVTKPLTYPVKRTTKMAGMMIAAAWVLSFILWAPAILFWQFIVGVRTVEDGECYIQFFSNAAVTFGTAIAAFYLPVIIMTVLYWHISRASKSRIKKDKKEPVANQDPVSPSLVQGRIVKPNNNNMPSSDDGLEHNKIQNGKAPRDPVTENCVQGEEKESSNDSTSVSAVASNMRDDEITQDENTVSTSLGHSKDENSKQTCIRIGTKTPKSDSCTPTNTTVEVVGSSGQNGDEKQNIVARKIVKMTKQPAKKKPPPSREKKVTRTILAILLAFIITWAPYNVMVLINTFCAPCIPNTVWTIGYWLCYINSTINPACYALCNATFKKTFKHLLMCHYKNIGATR

[9] = biological target: T3, Muscarinic acetylcholine receptor M4; experiment: Agonist activity at human M4 receptor expressed in HEK293T cells by BRET based Gq protein activation assay
[10] = biological target: T3, Muscarinic acetylcholine receptor M4; experiment: Antagonist activity at human M4 receptor expressed in HEK293T cells assessed as inhibition of carbachol-induced response by beta-arrestin engagement assay; format: cell-based, HEK-293T
[11] = biological target: T3, Muscarinic acetylcholine receptor M4; experiment: Antagonist activity at human M4 receptor expressed in HEK293T cells assessed as inhibition of carbachol-induced response by BRET based Gq protein engagement assay; format: cell-based, HEK-293T
[12] = biological target: T2, Muscarinic acetylcholine receptor M1; format: cell-based, HEK-293T
[13] = biological target: T6, Muscarinic acetylcholine receptor M1 (Homo sapiens) (UniProt P11229); experiment: Agonist activity at human M1 receptor expressed in HEK293T cells by BRET based Gq protein engagement assay relative carbachol; format: cell-based; conditions: HEK-293T
T6 sequence (whole entry): T2 sequence (P11229 whole entry)

[14] = biological target: T6, Muscarinic acetylcholine receptor M1 (Homo sapiens); experiment: Agonist activity at human M1 receptor expressed in HEK293T cells by BRET based beta-arrestin engagement assay relative to carbachol; format: cell-based; conditions: HEK-293T
[15] = biological target: T1, Muscarinic acetylcholine receptor M4 (Homo sapiens); experiment: Agonist activity at human M4 receptor expressed in HEK293T cells by BRET based Gi protein activation assay relative to carbachol; conditions: HEK-293T
[16] = biological target: T2, Muscarinic acetylcholine receptor M1; experiment: Agonist activity at human M1 receptor expressed in HEK293T cells by BRET based Gq protein activation assay; format: cell-based, HEK-293T
[17] = biological target: T2, Muscarinic acetylcholine receptor M1; experiment: Agonist activity at human M1 receptor expressed in HEK293T cells by BRET based beta-arrestin engagement assay
[18] = biological target: T1, Muscarinic acetylcholine receptor M4 (Homo sapiens); experiment: Agonist activity at human M4 receptor expressed in HEK293T cells by BRET based Gq protein engagement assay relative to carbachol; format: cell-based; conditions: HEK-293T
[19] = biological target: T6, Muscarinic acetylcholine receptor M1 (Homo sapiens); experiment: Agonist activity at human M1 receptor expressed in HEK293T cells by BRET based Gq protein activation assay relative to carbachol; format: cell-based; conditions: HEK-293T
[20] = biological target: T2, Muscarinic acetylcholine receptor M1; format: cell-based, HEK-293T; remark: listed apart in the source
[21] = biological target: T3, Muscarinic acetylcholine receptor M4
[22] = biological target: T2, Muscarinic acetylcholine receptor M1
[23] = biological target: T2, Muscarinic acetylcholine receptor M1; experiment: Agonist activity at human M1 receptor expressed in HEK293T cells by BRET based Gq protein engagement assay

## CN1CCN(CC(=O)N2c3ccccc3C(=O)Nc3cccnc32)CC1
[1]
  Imax: < 100%
[2]
  Imax: 67%
[3]
  Imax: < 100%

## O=C1CCc2ccccc2N1CCCN1CCC(CCCCCCCCCC2CCN(CCCN3C(=O)CCc4ccccc43)CC2)CC1
[4]
  Ki: 29.5 nM
[5]
  Ki: 32.4 nM
[6]
  Ki: 57.5 nM
[7]
  Ki: 49 nM
[8]
  Ki: 79.4 nM

## CN1CCC=C(c2nsnc2OCCCCCCCCCOc2nsnc2C2=CCCN(C)C2)C1
[4]
  Ki: 1.66 nM
[5]
  Ki: 0.776 nM
[6]
  Ki: 2.88 nM
[7]
  Ki: 3.98 nM
[8]
  Ki: 3.16 nM

## CN1CCC=C(c2nsnc2OCCCCCCCCCC2CCN(CCCN3C(=O)CCc4ccccc43)CC2)C1
[1]
  Imax: 63%
[9]
  EC50: 66100 nM
[2]
  Imax: < 100%
[10]
  IC50: 95500 nM
[4]
  Ki: 1.02 nM
[11]
  IC50: 2450 nM
[12]
  IC50: 148000 nM
[5]
  Ki: 1.07 nM
[6]
  Ki: 1.1 nM
[13]
  Emax: < 0%
[14]
  Emax: 81%
[15]
  Emax: > 100%
[16]
  EC50: 871 nM
[17]
  EC50: 61700 nM
[18]
  Emax: < 0%
[7]
  Ki: 2.95 nM
[19]
  Emax: 31%
[20]
  IC50: 14100 nM
[8]
  Ki: 1.7 nM

## O=C1CCc2ccccc2N1CCCN1CCC(CCCCCCCCCO)CC1
[1]
  Imax: 92%
[2]
  Imax: 90%
[10]
  IC50: 813 nM
[4]
  Ki: 282 nM
[11]
  IC50: 589 nM
[12]
  IC50: 19500 nM
[5]
  Ki: 155 nM
[6]
  Ki: 200 nM
[13]
  Emax: < 0%
[14]
  Emax: 50%
[15]
  Emax: < 0%
[3]
  Imax: < 100%
[21]
  IC50: 3630 nM
[16]
  EC50: 295 nM
[17]
  EC50: 245000 nM
[18]
  Emax: < 0%
[7]
  Ki: 851 nM
[19]
  Emax: 22%
[20]
  IC50: 10000 nM
[8]
  Ki: 214 nM
[22]
  IC50: 490 nM

## O=C1CCc2ccccc2N1CCCN1CCC(CCCCCCCCCCCO)CC1
[4]
  Ki: 123 nM
[5]
  Ki: 112 nM
[6]
  Ki: 575 nM
[7]
  Ki: 347 nM
[8]
  Ki: 417 nM

## CN1CCC=C(c2nsnc2OCCCC2CCN(CCCN3C(=O)CCc4ccccc43)CC2)C1
[4]
  Ki: 77.6 nM
[5]
  Ki: 26.3 nM
[6]
  Ki: 93.3 nM
[7]
  Ki: 102 nM
[8]
  Ki: 66.1 nM

## CN1CCC=C(c2nsnc2OCCCCCCCCCCCC2CCN(CCCN3C(=O)CCc4ccccc43)CC2)C1
[4]
  Ki: 11 nM
[5]
  Ki: 6.61 nM
[6]
  Ki: 10 nM
[7]
  Ki: 8.71 nM
[8]
  Ki: 89.1 nM

## O=C1CCc2ccccc2N1CCCN1CCC(CCCO)CC1
[4]
  Ki: 2510 nM
[5]
  Ki: 589 nM
[6]
  Ki: 11700 nM
[7]
  Ki: 14500 nM
[8]
  Ki: 3240 nM

## O=C1CCc2ccccc2N1CCCN1CCC(CCCCCO)CC1
[1]
  Imax: 72%
[9]
  EC50: 2000 nM
[2]
  Imax: < 100%
[10]
  IC50: 1620 nM
[4]
  Ki: 468 nM
[11]
  IC50: 12300 nM
[12]
  IC50: 10000 nM
[5]
  Ki: 447 nM
[6]
  Ki: 1910 nM
[13]
  Emax: 58%
[15]
  Emax: 20%
[3]
  Imax: 38%
[21]
  IC50: 3310 nM
[16]
  EC50: 204 nM
[7]
  Ki: 4570 nM
[19]
  Emax: 53%
[20]
  IC50: 26300 nM
[23]
  EC50: 112 nM
[8]
  Ki: 603 nM
[22]
  IC50: 28.8 nM

## O=C1CCc2ccccc2N1CCCN1CCC(CCCCCCCCCCCCCO)CC1
[4]
  Ki: 186 nM
[5]
  Ki: 95.5 nM
[6]
  Ki: 339 nM
[7]
  Ki: 339 nM
[8]
  Ki: 479 nM

## CN1[C@@H]2C[C@@H](OC(=O)[C@H](CO)c3ccccc3)C[C@H]1[C@@H]1O[C@@H]12
[1]
  Imax: < 100%
[2]
  Imax: 77%
[3]
  Imax: < 100%

## CN1CCC=C(c2nsnc2OCCCCCCCCCCCCCC2CCN(CCCN3C(=O)CCc4ccccc43)CC2)C1
[4]
  Ki: 44.7 nM
[5]
  Ki: 14.5 nM
[6]
  Ki: 44.7 nM
[7]
  Ki: 30.9 nM
[8]
  Ki: 85.1 nM
